Assay results published in paper PMC11470957, “Principles of paralog-specific targeted protein degradation engaging the C-degron E3 KLHDC2” (Nature Communications, 2024).
Values joined by “and” are separate entries in the source; they are usually repeats but may differ in a detail not shown here. Equal values may be shown once. Read-outs that look alike come from different tables or passages of the source.

Legend:
BRD2 = BRD2 (Homo sapiens, UniProt P25440); test: Western blot of BRD2 levels after cellular dosing
BRD3 = BRD3 (Homo sapiens, UniProt Q15059); test: Western blot of BRD3 levels after cellular dosing
BRD4 = BRD4 (Homo sapiens, UniProt O60885); test: Western blot of BRD4 levels after cellular dosing; conditions: for BRD4 level, Western blot quantification (DMSO = 100): 1 uM; for BRD4 level relative to DMSO (100%): U2OS KO/Rescue, 1µM, 24 h
KLHDC2 = target: T1, KLHDC2 (Homo sapiens, UniProt Q9Y2U9); test: Western blot of KLHDC2 levels after cellular dosing; conditions: for KLHDC2 level, Western blot quantification (DMSO = 100): 1 uM; for KLHDC2 level relative to DMSO (100%): U2OS KO/Rescue
T1 sequence (Q9Y2U9 1-406): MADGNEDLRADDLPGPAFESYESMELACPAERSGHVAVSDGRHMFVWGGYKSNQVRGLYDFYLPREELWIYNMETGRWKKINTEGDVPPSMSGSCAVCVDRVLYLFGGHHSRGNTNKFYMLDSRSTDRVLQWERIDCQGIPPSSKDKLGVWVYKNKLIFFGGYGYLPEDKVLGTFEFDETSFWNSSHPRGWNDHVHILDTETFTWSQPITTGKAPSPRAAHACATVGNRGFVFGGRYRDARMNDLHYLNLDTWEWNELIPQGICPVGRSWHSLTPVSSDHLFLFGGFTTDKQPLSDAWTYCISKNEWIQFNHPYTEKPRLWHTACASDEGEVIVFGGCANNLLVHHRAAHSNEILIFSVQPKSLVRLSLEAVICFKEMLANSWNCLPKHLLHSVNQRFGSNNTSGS

[1] = U2OS, 24 h, read-out: BRD2 level relative to DMSO (100%), U2OS KO/Rescue, 1µM, 24 h, Fig 6d
[2] = U2OS, 24 h, read-out: BRD3 level relative to DMSO (100%), U2OS KO/Rescue, 1µM, 24 h, Fig 6d
[3] = U2OS, 24 h, read-out: BRD2 level relative to DMSO (100%), U2OS KO/Rescue, 1µM, 24 h, Fig 6c
[4] = U2OS, 24 h, read-out: BRD3 level relative to DMSO (100%), U2OS KO/Rescue, 1µM, 24 h, Fig 6c

BRD3, sequence (Q15059 whole entry): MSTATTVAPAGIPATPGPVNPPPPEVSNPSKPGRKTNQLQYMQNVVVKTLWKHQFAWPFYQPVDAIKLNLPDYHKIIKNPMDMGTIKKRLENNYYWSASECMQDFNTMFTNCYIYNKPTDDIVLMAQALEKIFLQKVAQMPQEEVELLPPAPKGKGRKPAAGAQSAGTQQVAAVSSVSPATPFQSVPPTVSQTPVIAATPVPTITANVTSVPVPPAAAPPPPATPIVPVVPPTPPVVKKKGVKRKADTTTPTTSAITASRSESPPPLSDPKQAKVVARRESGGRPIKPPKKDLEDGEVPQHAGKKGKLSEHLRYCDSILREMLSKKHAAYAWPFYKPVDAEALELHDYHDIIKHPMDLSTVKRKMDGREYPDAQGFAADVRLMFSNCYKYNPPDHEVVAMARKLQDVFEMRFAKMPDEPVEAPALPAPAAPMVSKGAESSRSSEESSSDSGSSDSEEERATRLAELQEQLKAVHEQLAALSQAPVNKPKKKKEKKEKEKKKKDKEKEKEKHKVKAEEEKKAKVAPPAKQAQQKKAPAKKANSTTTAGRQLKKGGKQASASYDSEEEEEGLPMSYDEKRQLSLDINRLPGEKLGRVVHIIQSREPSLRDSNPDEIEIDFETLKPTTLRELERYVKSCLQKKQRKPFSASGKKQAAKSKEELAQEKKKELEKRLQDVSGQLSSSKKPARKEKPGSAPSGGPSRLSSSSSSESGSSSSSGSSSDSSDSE
BRD2, sequence (P25440 whole entry): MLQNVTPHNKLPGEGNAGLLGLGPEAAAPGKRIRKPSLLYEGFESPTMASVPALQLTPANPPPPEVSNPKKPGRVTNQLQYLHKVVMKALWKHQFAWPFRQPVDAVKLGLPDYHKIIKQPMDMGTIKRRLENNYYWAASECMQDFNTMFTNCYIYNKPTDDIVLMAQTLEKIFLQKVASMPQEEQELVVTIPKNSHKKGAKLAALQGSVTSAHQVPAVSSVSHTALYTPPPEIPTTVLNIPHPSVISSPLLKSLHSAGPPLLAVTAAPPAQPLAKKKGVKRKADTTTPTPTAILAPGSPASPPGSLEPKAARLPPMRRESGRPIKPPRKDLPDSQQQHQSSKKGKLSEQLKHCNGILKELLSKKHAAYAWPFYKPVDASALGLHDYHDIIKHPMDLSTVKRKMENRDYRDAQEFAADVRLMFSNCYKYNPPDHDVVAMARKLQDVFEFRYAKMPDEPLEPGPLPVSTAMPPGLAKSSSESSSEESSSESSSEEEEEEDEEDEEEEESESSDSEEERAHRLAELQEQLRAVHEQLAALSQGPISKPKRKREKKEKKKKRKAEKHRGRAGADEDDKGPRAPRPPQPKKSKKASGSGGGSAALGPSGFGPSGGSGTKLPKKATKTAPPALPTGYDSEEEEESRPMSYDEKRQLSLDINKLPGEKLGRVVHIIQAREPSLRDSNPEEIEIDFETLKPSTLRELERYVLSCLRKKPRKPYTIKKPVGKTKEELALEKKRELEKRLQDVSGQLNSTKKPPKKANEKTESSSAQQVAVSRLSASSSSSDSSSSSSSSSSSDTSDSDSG

NS(=O)(=O)OC[C@@H]1C[C@@H](n2ccc3c(N[C@H]4CCc5ccccc54)ncnc32)C[C@@H]1O [MLN4924, reference compound]
remaining activity at 1 µM (BRD2; [1]): 170 ± 21%
remaining activity at 1 µM (BRD3; [2]): 120 ± 23%
BRD4 level, Western blot quantification (DMSO = 100) (BRD4; Fig 6d): 136.422 and 116.069
BRD4 level relative to DMSO (100%) (BRD4; Fig 6d): 130 +/- 14%
KLHDC2 level, Western blot quantification (DMSO = 100) (KLHDC2; Fig 6d): 3372.82 and 2800.12
KLHDC2 level relative to DMSO (100%) (KLHDC2; 1µM, 24 h, Fig 6d): 3090 +/- 404%

Cc1sc2c(c1C)C(c1ccc(Cl)cc1)=N[C@@H](CC(=O)N1CCN(CCOc3cccc4ccc(-c5nc(CC(=O)NCC(=O)OCc6ccccc6)cs5)cc34)CC1)c1nnc(C)n1-2 [SJ48087]
remaining activity at 1 µM (BRD2; [3]): 90 ± 4%
remaining activity at 1 µM (BRD3; [4]): 89 ± 7.3%
BRD4 level relative to DMSO (100%) (BRD4; Fig 6c): 101 +/- 11%
KLHDC2 level relative to DMSO (100%) (KLHDC2; 1µM, 24 h, Fig 6c): 221 +/- 27%

Cc1sc2c(c1C)C(c1ccc(Cl)cc1)=N[C@@H](CC(=O)N1CCN(CCOc3cccc4ccc(-c5nc(CC(=O)NCC(=O)OC6CCCC6)cs5)cc34)CC1)c1nnc(C)n1-2 [SJ48088]
remaining activity at 1 µM (BRD2; U2OS, 24 h, read-out: BRD2 level relative to DMSO (100%), U2OS KO/Rescue, 1µM + co-dosing 1µM MLN4924, 24 h, Fig 6d): 270 ± 67%
remaining activity at 1 µM (BRD2; [3]): 83 ± 9.7%
remaining activity at 1 µM (BRD2; [1]): 78 ± 7.4%
remaining activity at 1 µM (BRD2; read-out: BRD2 level, Western blot quantification (DMSO = 100), Fig 6c, 1 uM): 75.6%
remaining activity at 1 µM (BRD2; read-out: BRD2 level, Western blot quantification (DMSO = 100), Fig 6d, 1 uM): 73.2%
remaining activity at 1 µM (BRD3; U2OS, 24 h, read-out: BRD3 level relative to DMSO (100%), U2OS KO/Rescue, 1µM + co-dosing 1µM MLN4924, 24 h, Fig 6d): 120 ± 6.2%
remaining activity at 1 µM (BRD3; [4]): 46 ± 1.5%
remaining activity at 1 µM (BRD3; [2]): 24 ± 4.6%
remaining activity at 1 µM (BRD3; read-out: BRD3 level, Western blot quantification (DMSO = 100), Fig 6c, 1 uM): 47.1%
remaining activity at 1 µM (BRD3; read-out: BRD3 level, Western blot quantification (DMSO = 100), Fig 6d, 1 uM): 20.7%
BRD4 level, Western blot quantification (DMSO = 100) (BRD4; Fig 6c): 85.9664 and 71.4338
BRD4 level, Western blot quantification (DMSO = 100) (BRD4; Fig 6d): 72.2613 and 75.636
BRD4 level relative to DMSO (100%) (BRD4; Fig 6c): 79 +/- 9.6%
BRD4 level relative to DMSO (100%) (BRD4; Fig 6d): 74 +/- 2.5%
KLHDC2 level, Western blot quantification (DMSO = 100) (KLHDC2; Fig 6c): 472.526 and 740.895
KLHDC2 level, Western blot quantification (DMSO = 100) (KLHDC2; Fig 6d): 1961.3 and 1506.23
KLHDC2 level relative to DMSO (100%) (KLHDC2; 1µM + co-dosing 1µM MLN4924, 24 h, Fig 6d): 4837 +/- 513%
KLHDC2 level relative to DMSO (100%) (KLHDC2; 1µM, 24 h, Fig 6c): 606 +/- 190%
KLHDC2 level relative to DMSO (100%) (KLHDC2; 1µM, 24 h, Fig 6d): 1733 +/- 321%
